Data from EP0183439B1, “Polycyclic compounds, their preparation and use and formulations containing them” (THE WELLCOME FOUNDATION LIMITED, priority 1984, dated 1986).
Structures can show the parent of a compound that is named as a salt.

Columns and labels:
[1] = LD20 in the P388/0 test (toxicity in mice); type: in vivo
Description: (§1) CD2-F₁ mice, of the same sex, weighing within a 3 g range surrounding 20 g, are used for this test. Control and test animals are injected intraperitoneally with a suspension of 10⁶ viable P388/0 tumor cells on day 0. In each test several dose levels which bracket the LD₂₀ for the compound are evaluated; each dose level group contains 6 animals. The test compounds are prepared either in physiologic saline containing 0.05% Tween 80 or distilled water containing 5% dextrose and are administered intraperitoneally on days, 1, 5, and 9 relative to tumor implant.

P388/0 tumor cells = assay: Lymphocytic Leukemia P388/0 Test; type: in vivo, CD2-F₁ mice; settings: ratio of median survival time treated/control at optimal dose; i.p. days 1, 5, 9; 10⁶ P388/0 cells i.p. on day 0
Excerpt: Methods for evaluating the antitumor activity of these compounds are essentially those used in the Tumor Panel by the Development Therapeutics Program, Division of Cancer Treatment, National Cancer Institute, A. Goldin, et al., Methods in Cancer Research, Vol. XVI, p. 165, Academic Press (1979). Some modifications, in dose level and schedule have been made to increase the testing efficiency.
as §1
Doses are on a mg/kg basis according to individual animals' body weights. The day of death for each animal is recorded, the median identified for each group and the ratios of median survival time for treated (T)/control (C) groups are calculated. The criterion for activity is T/C x 100 120%.

[2] = intraperitoneally on days 1, 5 and 9

| Compound | LD₂₀ ([1]; mouse, in vivo, ip) | T/C x 100% (Exluding 30 Day Survivors) (P388/0 tumor cells) | LD₂₀ [1, 2] |
| --- | --- | --- | --- |
| CC(CO)(CO)NCc1cccc2sc3ccccc3c12 [Example 1, 2-[(1-Dibenzothiophenylmethyl)amino]-2-methyl-1,3-propanediol hydrochloride] | 240 mg/kg | +140% | – |
| CC(CO)(CO)NCc1c2ccccc2nc2ccccc12 [Example 13, 2-[(9-Acridinylmethyl)amino]-2-methyl-1,3-propanediol dihydochoride] | 540 mg/kg | +130% | – |
| CC(CO)(CO)NCc1ccc2sc3ccccc3c2c1.Cl [Example 2, 2-[(2-Dibenzothiophenylmethyl)amino]-2-methyl-1,3-propanediol hydrochloride] | – | +130% | 200 mg/kg |
| CC(CO)(CO)NCc1c2ccccc2cc2sccc12 [Example 6B, 2-[(Naphtho[2,3-b]thiophen-4-ylmethyl)amino]-2-methyl-1,3-propanediol hydrochloride 1/20 hydrate] | 150 mg/kg | +125% | – |
| CC(CO)(CO)NCc1ccc2oc3ccccc3c2c1.Cl [Example 5, 2-[(2-Dibenzofuranylmethyl)amino]-2-methyl-1,3-propanediol hydrochloride] | – | +120% | 225 mg/kg |
| CC(CO)(CO)NCc1cccc2c1sc1ccccc12.Cl [Example 3, 2-[(4-Dibenzothiophenylmethyl)amino]-2-methyl-1,3-propanediol hydrochloride] | – | +155% | 200 mg/kg |
| CC(CO)(CO)NCc1cc2ccsc2c2ccccc12 [Example 10C, 2-Methyl-2-[(naphtho[1,2-b]thiophene-5-ylmethyl)amino]-1,3-propanediol] | – | +125% | 115 mg/kg |
| CC(CO)(CO)NCc1cccc2oc3ccccc3c12 [Example 4B, 2-[(1-Dibenzofuranylmethyl)amino]-2-methyl-1,3-propanediol hydrochloride] | – | +140% | 200 mg/kg |
